We go through three molecules from US20050059634A1, “Per-6-substituted-per-6-deoxy-cyclodextrins, and use of the same to inhibit soluble beta-amyloid-peptide derived oligomers and to treat alzheimer's and related diseases” (priority 2003, published 2005).

One test deals with T1, Aβ1-42 (Homo sapiens, UniProt P05067).
T1 construct: an aliquot of Aβ1-42 was dissolved in anhydrous DMSO
Kind of test: ADDLs formation dot-blot assay (Aβ oligomerization). Format: biochemical. Particulars: for IC50: purified derivatives, Aβ1-42 10 nM, dot-blot densitometry at 4 hours, read-out: IC50, inhibition of ADDLs formation. How it is done: Using a high throughput dot blot assay recently developed for measuring Aβ oligomerization (L. Chang et al., J. Neuromol. Chem., 20, 305-313 (2003)), various beta-CD derivatives were evaluated for an ability to inhibit oligomerization of Aβ1-42. beta-CD (1) is a cyclic glucopyranose oligomer (FIG. 1), whose shape is reminiscent of a lamp-shade, frequently depicted schematically as compound 2 in FIG. 1. Actually three different hydroxyls are present in each sugar in the beta-CD molecule, which can be readily differentiated chemically. Additionally, no plane of symmetry exists in the molecule because the cyclic α-1,4-linkage forms a torus. Consequently, the primary hydroxyl groups are not equivalent when substituted. The end result of these structural features is that symmetry operations are not possible with different substitution patterns and each pattern represents a different compound. […]
ADDLs assay The assays were performed as set forth in Wang et al., J. Med. Chem., 47(13), pages 3329-3333 (2003). […] Time-dependent ADDLs formation was monitored by diluting 4 μl of […] Aβ/DMSO solutions with 196 μl of ice-cold F12 medium to 100 nM and 10 nM Aβ, respectively. […] These F12/CD solutions then were used in ADDLs assays, and the oligomer formation monitored as described. […]
ADDLs Western blot/dot blot assays For Western blots, samples were subjected to SDS-PAGE on 16.5% Tris-tricine gels at 100V […] for 1.5 to 2 hours. […] Visualization of proteins with chemiluminescent reagents was recorded by exposure to ECL film (Amersham-Pharmacia).
Dose response curves Dose response curves were prepared by performing the aforementioned dot-blot assays with Aβ1-42 (10 nM) in the presence of purified per-6-substituted-beta-CDs at the indicated concentrations. The response was determined for the dots at 4 hours using Kodak 1D imaging software and reported as log dose response of the ratio of beta-CD to Aβ1-42 as shown in FIG. 5.

In a further test the test system is PC12 cells. The following applies: Camilleri et al. 1994; cited from earlier work.

T1 sequence (P05067 672-713 limits assumed): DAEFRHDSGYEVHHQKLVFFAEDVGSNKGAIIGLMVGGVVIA

Consider `OC[C@H]1O[C@@H]2O[C@H]3[C@H](O)[C@@H](O)[C@@H](O[C@H]4[C@H](O)[C@@H](O)[C@@H](O[C@H]5[C@H](O)[C@@H](O)[C@@H](O[C@H]6[C@H](O)[C@@H](O)[C@@H](O[C@H]7[C@H](O)[C@@H](O)[C@@H](O[C@H]8[C@H](O)[C@@H](O)[C@@H](O[C@H]1[C@H](O)[C@H]2O)O[C@@H]8CO)O[C@@H]7CO)O[C@@H]6CO)O[C@@H]5CO)O[C@@H]4CO)O[C@@H]3CO` [beta-CD, beta-cyclodextrin], for which the “inhibitory activity in ADDLs formation assay (qualitative)” value at Aβ1-42 (corresponding concentrations, same conditions as the purified derivatives) is “did not show any detectable inhibitory activity”. The “effect on neurotoxic effects of Aβ1-40” value with PC12 cells is “substantially diminishes the neurotoxic effects”.
By IC50 is commonly meant the concentration at which inhibition is half-maximal. Take `OC1C2OC(CNCc3ccco3)C(OC3OC(CNCc4ccco4)C(OC4OC(CNCc5ccco5)C(OC5OC(CNCc6ccco6)C(OC6OC(CNCc7ccco7)C(OC7OC(CNCc8ccco8)C(OC8OC(CNCc9ccco9)C(O2)C(O)C8O)C(O)C7O)C(O)C6O)C(O)C5O)C(O)C4O)C(O)C3O)C1O` (stereo not drawn) [4a, per-furfurylamino-6-deoxy-beta-CD]: at Aβ1-42, the IC50 was 540 nM.
Regarding `OC1C2OC(CNCc3ccccc3)C(OC3OC(CNCc4ccccc4)C(OC4OC(CNCc5ccccc5)C(OC5OC(CNCc6ccccc6)C(OC6OC(CNCc7ccccc7)C(OC7OC(CNCc8ccccc8)C(OC8OC(CNCc9ccccc9)C(O2)C(O)C8O)C(O)C7O)C(O)C6O)C(O)C5O)C(O)C4O)C(O)C3O)C1O` (stereo not drawn) [5a, per-benzylamino-6-deoxy-beta-CD], the concentration for half-maximal inhibition (IC50) on Aβ1-42 was 460 nM.
